Drawing on ChEMBL document CHEMBL3351565, “Cycloartane-type triterpenes from Euphorbia fischeriana stimulate human CYP3A4 promoter activity” (Bioorg Med Chem Lett, 2014), this text covers fold induction and Activity for eight molecules.

The target of one data set is CYP3A4 (Homo sapiens, UniProt P08684). Nature of the data set: (§1) Induction of CYP3A4 in human HepG2 cells at 10 uM after 24 hrs by luciferase reporter gene assay in presence of hPXR relative to control. The note with it: HepG2 cells with hPXR and CYP3A4 luciferase reporter.
Chain of CYP3A4 (P08684 whole entry): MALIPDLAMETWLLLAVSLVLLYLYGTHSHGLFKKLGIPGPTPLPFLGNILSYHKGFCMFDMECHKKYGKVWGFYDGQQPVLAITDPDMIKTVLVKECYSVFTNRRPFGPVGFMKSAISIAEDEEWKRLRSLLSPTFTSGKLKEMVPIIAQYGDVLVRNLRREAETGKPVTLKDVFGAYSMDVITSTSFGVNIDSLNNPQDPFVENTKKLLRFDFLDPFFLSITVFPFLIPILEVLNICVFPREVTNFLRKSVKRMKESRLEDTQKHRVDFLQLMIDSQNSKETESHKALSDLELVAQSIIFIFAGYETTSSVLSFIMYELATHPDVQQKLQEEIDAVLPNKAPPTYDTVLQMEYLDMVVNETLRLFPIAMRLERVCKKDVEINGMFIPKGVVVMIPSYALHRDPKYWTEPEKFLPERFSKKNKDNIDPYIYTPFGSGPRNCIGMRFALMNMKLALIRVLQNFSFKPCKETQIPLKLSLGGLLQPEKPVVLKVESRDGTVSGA
For the next data set, the system named is Hepatocyte. The data set is described as follows: Induction of CYP3A4 mRNA expression in human primary hepatocytes at 10 uM after 24 hrs by RT-PCR analysis.
The target in a further data set is Cytochrome P450 3A4 (Homo sapiens, UniProt P08684). The data set is described as §1. The following applies: hepg2, 24 h, 10 µM.
Chain of Cytochrome P450 3A4 (P08684 whole entry): as above

Structures are written as SMILES.

As for `CC(C)C(=O)CC[C@@H](C)[C@H]1CC[C@@]2(C)[C@@H]3CC[C@H]4C(C)(C)[C@@H](O)CC[C@@]45C[C@@]35CC[C@]12C`, the fold induction at 24 h, 10 µM on CYP3A4 was found to be 4. Also, the result in the data set on Hepatocyte was Active.

On to `CC(=O)O[C@H]1CC[C@]23C[C@]24CC[C@]2(C)[C@@H]([C@H](C)CCC(=O)C(C)C)CC[C@@]2(C)[C@@H]4CC[C@H]3C1(C)C`, for which the Activity result at Cytochrome P450 3A4 is recorded as “Not Active”.

With `C=C(CC[C@@H](C)[C@H]1CC[C@@]2(C)[C@@H]3CC[C@H]4C(C)(C)[C@@H](O)CC[C@@]45C[C@@]35CC[C@]12C)C(C)(C)O`, on CYP3A4, the fold induction at 24 h, 10 µM was 4. For the same molecule, in the data set on Hepatocyte, the result was Active.

For `CC(=O)O[C@H]1CC[C@]2(C)C3=CC=C4[C@@H]5CC(C)(C)CC[C@]5(C)CC[C@@]4(C)[C@]3(C)CC[C@H]2C1(C)C`, the Activity result on Cytochrome P450 3A4 is reported as “Not Active”.

Consider `C=C(C)[C@@H]1CC[C@]2(C)CC[C@]3(C)[C@H](CC[C@@H]4[C@@]5(C)CC[C@@H](O)C(C)(C)[C@@H]5CC[C@]43C)[C@@H]12`, for which the Activity entry on Cytochrome P450 3A4 is “Not Active”.

With `CC(C)C1(CC[C@@H](C)[C@H]2CC[C@@]3(C)[C@@H]4CC[C@H]5C(C)(C)[C@@H](O)CC[C@@]56C[C@@]46CC[C@]23C)CO1` (mixture of isomers), at Cytochrome P450 3A4, the result was Active.

For `COC(CO)(CC[C@@H](C)[C@H]1CC[C@@]2(C)[C@@H]3CC[C@H]4C(C)(C)[C@@H](O)CC[C@@]45C[C@@]35CC[C@]12C)C(C)C` (mixture of isomers), at CYP3A4, the fold induction at 24 h, 10 µM stood at 9.4. Moreover, the Activity entry with Hepatocyte is “Not Active”.

Turning to `C=C(C)[C@@H]1CC[C@]2(C)CC[C@]3(C)[C@H](CC[C@@H]4[C@@]5(C)CC[C@H](O)C(C)(C)[C@@H]5CC[C@]43C)[C@@H]12` [LUPEOL], the Activity entry on Cytochrome P450 3A4 is listed as “Not Active”.
